For the assay, the system named is BDF1 mice, B16 melanoma ip, median survival T/C. In words: NCI In Vivo Anticancer Drug Screen. Data for tumor model B16 Melanoma (intraperitoneal) in B6D2F1 (BDF1) mice. To be noted: endpoint: median survival time, higher = longer survival. The method in brief: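 Read-out: survival or tumor size, given as treated/control ratio. Controls received vehicle only; animals bore transplantable tumors.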

[1] abbreviates: dose: 12.5 mg/kg/injection, schedule: Q01DX009 (ip), vehicle: saline with Tween-80.
Setting [2] is: dose: 25.0 mg/kg/injection, schedule: Q01DX009 (ip), vehicle: saline with Tween-80.
[3] abbreviates: dose: 25.0 mg/kg/injection, schedule: Q04DX003 (ip), vehicle: saline with Tween-80.
Where [4] appears, read: dose: 50.0 mg/kg/injection, schedule: Q01DX009 (ip), vehicle: saline with Tween-80.
Where [5] appears, read: dose: 50.0 mg/kg/injection, schedule: Q04DX003 (ip), vehicle: saline with Tween-80.
[6] abbreviates: dose: 100.0 mg/kg/injection, schedule: Q04DX003 (ip), vehicle: saline with Tween-80.
The mark [7] stands for this setting: dose: 50.0 mg/kg/injection, schedule: Q01DX009 (ip), vehicle: saline.
The mark [8] stands for this setting: dose: 50.0 mg/kg/injection, schedule: Q01DX009 (ip), vehicle: water.
The mark [9] stands for this setting: dose: 100.0 mg/kg/injection, schedule: Q01DX009 (ip), vehicle: saline.
[10] abbreviates: dose: 100.0 mg/kg/injection, schedule: Q01DX009 (ip), vehicle: water.
Setting [11] is: dose: 200.0 mg/kg/injection, schedule: Q01DX009 (ip), vehicle: water.

From PubChem BioAssay AID192 (DTP/NCI, 2004) come the findings set out here.

Values joined by “and” are separate entries in the source; they are usually repeats but may differ in a detail not shown here. Equal entries are not always repeated. Toxic doses and inconclusive results are not listed.

In the case of `C=CC1CC[N-]CC1.C=CC1CC[N-]CC1.C=CC1CC[N-]CC1.[Cl][Cr]([Cl])[Cl]`, the T/C was 97 % of control (dose: 8.0 mg/kg/injection, schedule: Q04DX003 (ip), vehicle: saline with Tween-80); 102 % of control (dose: 12.0 mg/kg/injection, schedule: Q04DX003 (ip), vehicle: saline with Tween-80); 95 % of control under setting [1]; 105 % of control (dose: 18.0 mg/kg/injection, schedule: Q04DX003 (ip), vehicle: saline with Tween-80); 95 % of control under setting [2]; 121 % of control under setting [3]. For the same compound, the T/C is, setting by setting: under setting [4], 102 % of control; under setting [5], 113 % of control.
For `CC1CC(C)CC(C)C(O)/C(C#N)=C/C=C/CC(C2CCCC2C(=O)O)OC(=O)CC(O)C(C)C1` (centres undefined), the T/C reads like this: (dose: 0.12 mg/kg/injection, schedule: Q01DX009 (ip), vehicle: Klucel (hydroxypropylcellulose) (HPC)) 111 % of control; (dose: 0.12 mg/kg/injection, schedule: Q01DX009 (ip), vehicle: saline with Tween-80) 119 % of control; (dose: 0.25 mg/kg/injection, schedule: Q01DX009 (ip), vehicle: Klucel (hydroxypropylcellulose) (HPC)) 108 % of control; (dose: 0.25 mg/kg/injection, schedule: Q01DX009 (ip), vehicle: saline with Tween-80) 113 % of control; (dose: 0.5 mg/kg/injection, schedule: Q01DX009 (ip), vehicle: Klucel (hydroxypropylcellulose) (HPC)) 110 % of control; (dose: 1.0 mg/kg/injection, schedule: Q01DX009 (ip), vehicle: Klucel (hydroxypropylcellulose) (HPC)) 107 % of control. Also, the T/C reads like this: (dose: 2.0 mg/kg/injection, schedule: Q01DX009 (ip), vehicle: Klucel (hydroxypropylcellulose) (HPC)) 105 % of control; (dose: 4.0 mg/kg/injection, schedule: Q01DX009 (ip), vehicle: Klucel (hydroxypropylcellulose) (HPC)) 98 % of control.
Turning to `COc1cccc(/C=C/C(=O)O)c1OC`, the T/C is, setting by setting: (dose: 50.0 mg/kg/injection, schedule: Q01DX009 (ip), vehicle: other) 101 % of control; (dose: 100.0 mg/kg/injection, schedule: Q01DX009 (ip), vehicle: other) 107 % of control; (dose: 200.0 mg/kg/injection, schedule: Q01DX009 (ip), vehicle: other) 98 % of control; (dose: 400.0 mg/kg/injection, schedule: Q01DX009 (ip), vehicle: other) 93 % of control.
As to `C[C@@H]1C[C@@]2(C)[C@@H](CC[C@@H]3[C@@H]2CC[C@]2(C)[C@@H](OC4CCCCO4)CC[C@@H]32)CC1=O` (some centres undefined), the T/C was 105 % of control (dose: 25.0 mg/kg/injection, schedule: Q01DX009 (ip), vehicle: Klucel (hydroxypropylcellulose) (HPC)); 100 % of control (dose: 50.0 mg/kg/injection, schedule: Q01DX009 (ip), vehicle: Klucel (hydroxypropylcellulose) (HPC)); 100 % of control (dose: 100.0 mg/kg/injection, schedule: Q01DX009 (ip), vehicle: Klucel (hydroxypropylcellulose) (HPC)).
Regarding `c1ccc(N/N=C2/CCN3CCCc4cccc2c43)cc1`, the T/C (dose: 25.0 micrograms/kg/injection, schedule: Q01DX009 (ip), vehicle: DMSO) is 86 % of control.
For the compound `C#CCN(C)/N=N/c1nc[nH]c1C(N)=O`, the T/C under setting [1] was 97 % of control, the T/C under setting [2] was 111 % of control and the T/C under setting [4] is 124 % of control.
Regarding `CC1=NN(c2ccccc2)C(=O)C1N=Nc1ccccc1S(=O)(=O)O` (centres undefined), the T/C under setting [4] was 90 % of control.
Regarding `S=c1sc2ccccc2n1CN(c1ccccc1)c1ccc2ccccc2c1`, the T/C reads like this: under setting [3], 109 % of control; under setting [5], 106 % of control; under setting [6], 93 % of control and 103 % of control.
With `Oc1ccccc1O.[O-]c1ccccc1[O-].[O-]c1ccccc1[O-].[O]=[V+2]`, the T/C was 88 % of control (dose: 2.5 mg/kg/injection, schedule: Q01DX009 (ip), vehicle: saline); 91 % of control (dose: 5.0 mg/kg/injection, schedule: Q01DX009 (ip), vehicle: saline); 97 % of control (dose: 10.0 mg/kg/injection, schedule: Q01DX009 (ip), vehicle: saline).
In the case of `Nc1ncnc2c1ncn2C1OC(COP(=O)(O)O)C(O)C1O` (centres undefined), the T/C is, setting by setting: (dose: 12.5 mg/kg/injection, schedule: Q01DX009 (ip), vehicle: saline) 124 % of control; (dose: 12.5 mg/kg/injection, schedule: Q01DX009 (ip), vehicle: water) 112 % of control; (dose: 20.0 mg/kg/injection, schedule: Q01DX009 (ip), vehicle: water) 113 % of control; (dose: 25.0 mg/kg/injection, schedule: Q01DX009 (ip), vehicle: water) 108 % of control; (dose: 40.0 mg/kg/injection, schedule: Q01DX009 (ip), vehicle: water) 110 % of control; under setting [7], 116 % of control. Besides, the T/C reads like this: under setting [8], 108 % of control; (dose: 80.0 mg/kg/injection, schedule: Q01DX009 (ip), vehicle: water) 104 % of control; under setting [9], 121 % of control; under setting [10], 118 % of control; (dose: 160.0 mg/kg/injection, schedule: Q01DX009 (ip), vehicle: water) 113 % of control; under setting [11], 118 % of control. The T/C (dose: 320.0 mg/kg/injection, schedule: Q01DX009 (ip), vehicle: water) was 124 % of control and the T/C (dose: 400.0 mg/kg/injection, schedule: Q01DX009 (ip), vehicle: water) was 117 % of control.
On to `COc1cc(C2C3=C(CC(C)(C)CC3=O)N(CC(=O)O)C3=C2C(=O)CC(C)(C)C3)ccc1O`, for which the T/C was 103 % of control under setting [8], 101 % of control under setting [10] and 115 % of control under setting [11].
Consider `C1CCC2C[N-]CCC2C1.C1CCC2C[N-]CCC2C1.C1CCC2C[N-]CCC2C1.C1CCC2C[N-]CCC2C1.[Cl][Rh][Cl]` (centres undefined), for which the T/C is 100 % of control (dose: 0.25 mg/kg/injection, schedule: Q01DX009 (ip), vehicle: saline); 104 % of control (dose: 0.5 mg/kg/injection, schedule: Q01DX009 (ip), vehicle: saline with Tween-80); 104 % of control (dose: 0.5 mg/kg/injection, schedule: Q01DX009 (ip), vehicle: saline); 95 % of control (dose: 1.0 mg/kg/injection, schedule: Q01DX009 (ip), vehicle: saline with Tween-80); 115 % of control (dose: 1.0 mg/kg/injection, schedule: Q01DX009 (ip), vehicle: saline); 92 % of control (dose: 2.0 mg/kg/injection, schedule: Q01DX009 (ip), vehicle: saline with Tween-80). The T/C by setting is: (dose: 2.0 mg/kg/injection, schedule: Q01DX009 (ip), vehicle: saline) 123 % of control; (dose: 4.0 mg/kg/injection, schedule: Q01DX009 (ip), vehicle: saline with Tween-80) 86 % of control; (dose: 4.0 mg/kg/injection, schedule: Q01DX009 (ip), vehicle: saline) 115 % of control; (dose: 8.0 mg/kg/injection, schedule: Q01DX009 (ip), vehicle: saline) 110 % of control.
On to `CCCCCCCCCCCC1=NCCN1`, for which the T/C (dose: 3.0 mg/kg/injection, schedule: Q01DX009 (ip), vehicle: saline with Tween-80) is 94 % of control; the T/C (dose: 6.0 mg/kg/injection, schedule: Q01DX009 (ip), vehicle: saline with Tween-80) is 97 % of control; the T/C (dose: 12.0 mg/kg/injection, schedule: Q01DX009 (ip), vehicle: saline with Tween-80) is 88 % of control.
For the compound `CC(C)C1(C(=O)NNC(=O)CCCc2ccc(N(CCCl)CCCl)cc2)OC2(O)CCCCCN2C1=O` (centres undefined), the T/C is 105 % of control (dose: 6.25 mg/kg/injection, schedule: Q04DX003 (ip), vehicle: Klucel (hydroxypropylcellulose) (HPC)); 114 % of control (dose: 12.5 mg/kg/injection, schedule: Q01DX009 (ip), vehicle: DMSO); 118 % of control (dose: 12.5 mg/kg/injection, schedule: Q04DX003 (ip), vehicle: Klucel (hydroxypropylcellulose) (HPC)); 167 % of control (dose: 100.0 mg/kg/injection, schedule: Q04DX003 (ip), vehicle: Klucel (hydroxypropylcellulose) (HPC)).
As for `COC(=O)c1ccc[n+](CC(=O)c2ccccc2)c1`, the T/C by setting is: under setting [7], 95 % of control; under setting [9], 93 % of control; (dose: 200.0 mg/kg/injection, schedule: Q01DX009 (ip), vehicle: saline) 99 % of control.
With `COC(=O)/C=C/c1ccc([N+](=O)[O-])cc1`, the T/C is, setting by setting: under setting [6], 90 % of control; (dose: 200.0 mg/kg/injection, schedule: Q04DX003 (ip), vehicle: saline with Tween-80) 93 % of control; (dose: 400.0 mg/kg/injection, schedule: Q04DX003 (ip), vehicle: saline with Tween-80) 86 % of control.
